Experimental data from patent publication US20100068747A1, “Generic Assay for Monitoring Endocytosis” (Evotec Technologies GmbH, priority 2005, published 2010).
“Also recorded” adds a separate entry of the source.

Legend:
U2OS/ETAR-GFP cells [1] = experiment: Internalization pathway analysis in U2OS/ETAR-GFP cells; format: cell-based, human
Method: With regard to the internalization pathway analysis in U2OS/ETAR-GFP cells, RDE was inhibited by including 5 mM β-methyl-cyclodextrin (CD) in the leveling medium. The following labeling and chase incubations were conducted in standard assay medium. For inhibition of clathrin mediated endocytosis cells were subjected to hypotonic shock by incubating 5 minutes at 37° C. in a 1:1 starvation medium-ddH2O mixture and then were transferred into a potassium (K^+) depleted assay medium for temperature leveling. The following labeling and chase incubations were also conducted in K^+ depleted assay medium, which was prepared by substituting sodium salts for all potassium salts in HBSS. Inhibition of both pathways was achieved by combining both methods and including 5 mM CD in the leveling medium for CLAME inhibition. For CLAME controls, 5 μg/ml Alexa Fluor 488 conjugated transferrin was included during the labeling period for all inhibited pathway scenarios. Protocol procedures were conducted as described, however, lectins were omitted in the labeling step. For lipid raft-dependent pathways there were no control markers available.

CHO/ETAR cells [2] = experiment: Lectin labeling of fixed cells, CHO/ETAR; format: cell-based; details: TRITC-lectin 10 nM and 20 nM
Method: (§1) Lectin labeling of fixed cells was conducted as follows: To detach confluent cells in order to prepare experiments for internalization studies, cells were always treated with EDTA solution instead of trypsin solution. For all seeding, washing, and labeling steps in 96-well plates a working volume of 100 μl per well was assessed. Cells were seeded out into a 96-well plate at different concentrations. U2OS/ETAR-GFP suspensions were adjusted to yield 2*10^4 cells/well, both of the CHO cell lines must be at 2.5*10^4 cells/well. Cells became confluent after 24 hours of incubation. In the following, they were washed with phosphate buffered saline (PBS) and fixed with 3% PFA for 20 minutes at RT. Then, cells were washed again with PBS and incubated in 10 nM and 20 nM solutions of each TRITC-lectin candidate in PBS, respectively. Again, cells were washed with PBS to remove excess lectin, and wells were refilled with PBS for analysis. For specificity controls, lectin solutions were incubated for 30 minutes prior to the application with an excess of the monosaccharide that represents the respective glyco-epitope.
(§2) The following microscopy and image analysis techniques were employed. When utilizing the epifluorescence microscope magnifications were adjusted according to the purpose of observation, e.g. single cell vs. cell collective. Concerning the filters U-MNU was used for Hoechst, U-MSWB for GFP, and U-N41007 for TRITC detection. Hoechst images were taken at 50 ms exposure time, GFP images at 100 to 200 ms and TRITC images needed 500 to 1000 ms. Overlay images were assembled with AnalySIS and tuned in color intensity to obtain the desired color contrast. Images taken to compare two experimental conditions, e.g. control vs. stimulus, featured identical exposure parameters. If possible, well areas were chosen that reflect similar states of confluence. Utilizing the Opera confocal fluorescence imager, the instrument was calibrated running standard methods for skew cropping (spatial camera alignments) and camera intensity normalization.

CHO/PAR-2 cells [3] = experiment: Lectin labeling of live cells, CHO/PAR-2; format: cell-based; details: TRITC-lectin, 10 nM at maximum
Method: (§3) Lectin labeling of live cells was conducted as follows: Cells were seeded as described above. After 24 hours cells were washed once with PBS and incubated in the incubator for another 2 hours in the respective standard medium without serum supplement to deprive them of serum factor mediated stimuli. This step was termed starvation period. Subsequently, cells were washed gently with PBS and incubated with 37° C. tempered assay medium comprised of Hank's Balanced Salt Solution (HBSS) pH 7.4, containing 20 mM HEPES and 30 mM D-glucose. The plate was left at RT for 30 minutes to slowly level its temperature and, thus, avoid capturing of temperature drop induced membrane dynamics. This period was termed leveling period. Then, assay medium was withdrawn and wells refilled with TRITC-lectin solutions at RT to start cell labeling. Several lectin concentrations in the low nano-molar range were tested. Molar concentrations were calculated from the data provided by Vector Labs. The plate was placed on a rotating shaker at low revolutions for 10 minutes while incubating. The start of the lectin incubation is referred to as assay starting point with t=0 min. After the 10 min incubation period the cells were gently washed with PBS and wells refilled with assay buffer at RT. Instantly thereafter, fluorescence signals were monitored predominately using the epifluorescence microscope.
as §2

U2OS cells = experiment: Specificity control with competing monosaccharide on fixed cells; format: cell-based, human; details: excess of inhibitory monosaccharide
Method: as §1

U2OS/ETAR-GFP cells [4] = experiment: Lectin labeling of fixed cells, U2OS/ETAR-GFP; format: cell-based, human; details: TRITC-lectin 10 nM and 20 nM
Method: as §1, §2

CHO/PAR-2 cells [5] = experiment: Lectin labeling of fixed cells, CHO/PAR-2; format: cell-based; details: TRITC-lectin 10 nM and 20 nM
Method: as §1, §2

CHO/ETAR cells [6] = experiment: Lectin labeling of live cells, CHO/ETAR; format: cell-based; details: TRITC-lectin, 10 nM at maximum
Method: as §3, §2

live cells = experiment: Signal transformation on live cells after labeling with fluorescent lectins (all cell lines); format: cell-based; details: all experiments
Method: as §3, with “The plate was placed on a rotating shaker at low revolutions for 10 minutes while incubating. The start of the lectin incubation is referred to as assay starting point with t=0 min. After the 10 min incubation period the cells were gently washed with PBS and wells refilled with assay buffer at RT.” left out
The following microscopy and image analysis techniques were employed. […] Utilizing the Opera confocal fluorescence imager, the instrument was calibrated running standard methods for skew cropping (spatial camera alignments) and camera intensity normalization.

U2OS/ETAR-GFP cells [7] = experiment: Lectin labeling of live cells, U2OS/ETAR-GFP; format: cell-based, human; details: TRITC-lectin, 10 nM at maximum
Method: as §3, §2

U2OS/ETAR-GFP cells [8] = experiment: Serum supplements (insulin) in live cell labeling; format: cell-based, human; details: 20 nM in assay medium in labeling and chase incubations
Method: For serum supplements in live cell labeling, starvation was carried out in Opti-MEM medium (11058; Gibco—Invitrogen, Karlsruhe, Germany). The following labeling and chase incubations were conducted in assay medium with a 20 nM insulin supplement.

[9] = system: CHO/ETAR cell membrane protein; experiment: Lectin blotting of ETAR membrane sample; format: binding; details: biotinylated lectin 5 μg/ml
Method: (§4) Membrane preparation was conducted as follows: Cells were cultured in five T175 flasks until confluency. Confluent cells were detached by applying 3 ml of EDTA solution onto the PBS washed cells. Following a 20-minute incubation at 37° C. and 5% CO2, cells were resuspended in 12 ml of starvation medium (standard medium without FCS), counted, and centrifuged in a Heraeus Megafuge 1.0R at 133 rcf for 4 minutes. All subsequent steps were carried out on ice and with ice cold solutions. After unification of all pellet fractions, hypotonic lysis buffer was added to the cells at a ratio of 1 ml per 5*10^7 cells. Additionally, protease inhibitor cocktail was added to 50 μl per 5*10^7 cells. Cells were homogenized with 30 strokes in a 5 ml potter on ice, centrifuged at 4° C. and 917 rcf for 10 minutes, and the supernatant was stored in an ultracentrifuge tube on ice. The pellet fraction was homogenized and centrifuged once again as described above. The supernatants of both procedures were unified and centrifuged at 4° C. and 100,000 rcf for 45 minutes in a Sorvall ultra-centrifuge. The supernatant of this centrifugation procedure was withdrawn and the pellet dissolved in 0.5 ml or 1.0 ml modified SDS PAGE loading buffer containing Tris-HCl, SDS, glycerol, but no β-mercapto-ethanol or dyes and stored in small aliquots of 50 μl at −20° C.
SDS-Page of membrane samples was conducted as follows: Discontinuous 12% polyacrylamide gels were prepared according to a standard protocol. Broad range marker and 25 μg membrane protein were mixed 1:1 with loading buffer and loaded five times onto a mini gel in alternating order. The gels were run at U=100 V for the first 20 minutes. Subsequently, voltage was increased to U=150 V. The run was aborted as soon as the pyronin G band reached the end of the gel. For coomassie staining, gels were put in coomassie staining solution on a shaker at low revolutions for 45 min. The staining solution was removed and the gel incubated with destaining solution for one to two hours, exchanging the solution several times until the desired contrast was obtained. […]

U2OS/ETAR-GFP cells [10] = experiment: Effect of lectin incubation on morphology of live cells; format: cell-based, human; details: 5 nM, 10 nM, and 20 nM versus the control
Method: as §3

[11] = system: CHO/PAR-2 cell membrane protein; experiment: Lectin blotting of PAR-2 membrane sample; format: binding; details: biotinylated lectin 5 μg/ml
Method: as §4
SDS-Page of membrane samples was conducted as follows: Discontinuous 12% polyacrylamide gels were prepared according to a standard protocol. Broad range marker and 25 μg membrane protein were mixed 1:1 with loading buffer and loaded five times onto a mini gel in alternating order. The gels were run at U=100 V for the first 20 minutes. Subsequently, voltage was increased to U=150 V. The run was aborted as soon as the pyronin G band reached the end of the gel. For coomassie staining, gels were put in coomassie staining solution on a shaker at low revolutions for 45 min. The staining solution was removed and the gel incubated with destaining solution for one to two hours, exchanging the solution several times until the desired contrast was obtained.
Blotting of membrane samples was conducted as follows: For blotting, 3 mm packs of Whatman papers were extensively soaked in one of the diverging blotting buffers, AB I, AB II, and CB, and a pile was assembled in a semi-dry Trans-Blot 3D system from Bio-Rad as depicted in the sketch of FIG. 2. Hybond nitrocellulose membrane was submerged in AB II prior to assembly. To smooth out any air bubbles from the pile, a Pasteur pipette was rolled several times over the top layer. The apparatus was closed and ran at U=25 V for 45 minutes. Then, the pile was disassembled, the membrane submerged in Ponceau S solution and gently swayed for 2 minutes. For destaining, ddH2O was substituted for the staining solution, and the membrane was briefly rinsed twice. After drying under ambient conditions, the marker bands were marked with a ballpoint-pen. The membrane was cut into slices each displaying one marker and one sample lane.
Probing of membrane samples was conducted as follows: For classical western blotting, membranes were blocked in PBS containing 5% low fat dried milk powder. They were placed on a rotating shaker at low revolutions for 1 hour. Subsequently, membranes were sealed in plastic bags with blocking solution additionally containing 1 μg/ml anti-PAR-2 antibody (1:400) or 0.5 μg/ml of anti-ETAR antibody (1:500), depending on the respective recombinant cell type used for the sample. […]

Substance	Staining of CHO/ETAR (CHO/ETAR cells [2])	Live cell staining of CHO/PAR-2 (CHO/PAR-2 cells [3])	fluorescent signal in the presence of the competing monosaccharide (U2OS cells)	Staining of U2OS/ETAR-GFP (U2OS/ETAR-GFP cells [4])	Staining of CHO/PAR-2 (CHO/PAR-2 cells [5])	Live cell staining of CHO/ETAR (CHO/ETAR cells [6])	Live cell staining of U2OS/ETAR-GFP (U2OS/ETAR-GFP cells [7])	other results
β-methyl-cyclodextrin	–	–	–	–	–	–	–	spot formation of sWGA signal under inhibition of raft-dependent pathways (U2OS/ETAR-GFP cells [1]; 5 mM in leveling medium, cholesterol extraction): did not impede the typical spot formation
Phaseolus vulgaris erythroagglutin [PHA-E]	cell surface	strong signal contrast between the relatively unstained nucleus area and its fluorescing perimeter; also recorded: spot formation	reduced	extensive fluorescence was observed at the cell surface	signals clearly marking individual cells; also recorded: cell surface	cell surface, sequestered	spot formation	stability of fluorescence signal over time (live cells): fairly stable signals
Phaseolus vulgaris leucoagglutin [PHA-L]	cell surface	strong signal contrast between the relatively unstained nucleus area and its fluorescing perimeter; also recorded: spot formation	reduced	extensive fluorescence was observed at the cell surface	signals clearly marking individual cells; also recorded: cell surface	cell surface, sequestered	spot formation	stability of fluorescence signal over time (live cells): fairly stable signals
Griffonia (Bandeiraea) simplicifolia lectin [GSL-I]	–	–	–	very faint signal covering only some single cells; also recorded: weak single cell	reduced intensity with a high background; also recorded: weak cell surface	–	signal points were significantly smaller and less; also recorded: small, scattered	–
porcine insulin	–	–	–	–	–	–	–	effect on spot formation of sWGA signal (U2OS/ETAR-GFP cells [8]): complete suppression of spot formation
Pisum sativum agglutin [PSA]	–	–	–	extensive fluorescence was observed at the cell surface	reduced intensity with a high background; also recorded: weak cell surface	–	spot formation	band at the same height as in the western (47 kDa, anti-ETAR) [9]: could clearly be detected
Sophora japonica agglutin [SJA]	–	–	reduced	only several little, spot-like signals on each cell; also recorded: weak spots on cell	–	–	medium sized, scattered spots	effect on U2OS/ETAR-GFP cells, phase contrast (U2OS/ETAR-GFP cells [10]): Irritating effect
Lens culinaris agglutin [LCA]	cell surface	spot formation	–	extensive fluorescence was observed at the cell surface	reduced intensity with a high background; also recorded: weak cell surface	fluorescence accumulation in the form of tiny points around the cell boundaries; also recorded: cell boundary, points	spot formation	band at the same height as the western band (55 kDa, anti-PAR-2) [11]: one of them matching the height of the western band; bands detected above 35 kDa ([11]; exposure one to five minutes): four
Alexa-Fluor® 488-transferrin: Human holo-transferrin-Alexa Fluor 488 conjugate, standard marker of the clathrin-mediated pathway	–	–	–	–	–	–	–	signals of clathrin-mediated pathway marker (U2OS/ETAR-GFP cells [1]; 5 μg/ml, all conditions but inhibition of the clathrin-dependent pathway): detected in the perinuclear region
